pIC50: −log10 of the molar value.
What was measured:
Experiment in all cases: cells
Conditions in all cases: Homo sapiens
CTB-1 = assay type: functional, cell-based
Description: SANGER: Inhibition of human CTB-1 cell growth in a cell viability assay.

KS-1 = assay type: functional, cell-based;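 further: growth inhibition of KS-1 cells, read out with a cell viability assay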
Description: SANGER: Inhibition of human KS-1 cell growth in a cell viability assay.

KARPAS-45 = assay type: functional, cell-based;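 further: inhibition of cell line growth, read out through a viability assay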
Description: SANGER: Inhibition of human KARPAS-45 cell growth in a cell viability assay.

SNB-75 = assay type: functional, cell-based;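 further: cell viability assay measuring growth inhibition of human SNB-75 cells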
Description: SANGER: Inhibition of human SNB75 cell growth in a cell viability assay.

ES3 = assay type: functional, cell-based;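 further: growth inhibition of ES3 cells, read out with a cell viability assay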
Description: SANGER: Inhibition of human ES3 cell growth in a cell viability assay.

MS-1 = assay type: functional, cell-based
Description: SANGER: Inhibition of human MS-1 cell growth in a cell viability assay.

NOMO-1 = assay type: functional, cell-based;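 further: growth inhibition of human NOMO-1 cells measured by a cell viability assay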
Description: SANGER: Inhibition of human NOMO-1 cell growth in a cell viability assay.

KP-N-YS = assay type: functional, cell-based;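 further: cell viability assay measuring inhibition of cell line growth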
Description: SANGER: Inhibition of human KP-N-YS cell growth in a cell viability assay.

A388 = assay type: functional, cell-based;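 further: growth inhibition of human A388 cells, read out with a cell viability assay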
Description: SANGER: Inhibition of human A388 cell growth in a cell viability assay.

SK-N-FI = assay type: functional, cell-based;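 further: cell viability assay measuring growth inhibition of human SK-N-FI cells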
Description: SANGER: Inhibition of human SK-N-FI cell growth in a cell viability assay.

KINGS-1 = assay type: functional, cell-based;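 further: cell viability assay measuring suppression of KINGS-1 cell growth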
Description: SANGER: Inhibition of human KINGS-1 cell growth in a cell viability assay.

CTV-1 = assay type: functional, cell-based;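 further: growth inhibition of the cell line, read out with a cell viability assay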
Description: SANGER: Inhibition of human CTV-1 cell growth in a cell viability assay.

EOL1 = assay type: functional, cell-based;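 further: growth inhibition of EoL-1 cells, read out by a cell viability assay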
Description: SANGER: Inhibition of human EoL-1-cell cell growth in a cell viability assay.

SCC-15 = assay type: functional, cell-based;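 further: growth inhibition of SCC-15 cells, read out with a cell viability assay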
Description: SANGER: Inhibition of human SCC-15 cell growth in a cell viability assay.

GCIY = assay type: functional, cell-based;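 further: growth inhibition of the human GCIY cell line, read out by a cell viability assay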
Description: SANGER: Inhibition of human GCIY cell growth in a cell viability assay.

MHH-PREB-1 = assay type: functional, cell-based;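 further: cell viability assay measuring inhibition of proliferation of human MHH-PREB-1 cells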
Description: SANGER: Inhibition of human MHH-PREB-1 cell growth in a cell viability assay.

CAS-1 = assay type: functional, cell-based;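 further: growth inhibition of CAS-1 cells, measured with a cell viability assay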
Description: SANGER: Inhibition of human CAS-1 cell growth in a cell viability assay.

A3-KAW = assay type: functional, cell-based;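 further: growth inhibition of human A3-KAW cells, read out with a cell viability assay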
Description: SANGER: Inhibition of human A3-KAW cell growth in a cell viability assay.

Calu-6 = assay type: functional, cell-based;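 further: growth of human Calu-6 cells, read out by a cell viability assay, IC50 marking inhibition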
Description: SANGER: Inhibition of human Calu-6 cell growth in a cell viability assay.

DU-4475 = assay type: functional, cell-based
Description: SANGER: Inhibition of human DU-4475 cell growth in a cell viability assay.

ES5 = assay type: functional, cell-based;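 further: growth inhibition of human ES5 cells, read out by a cell viability assay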
Description: SANGER: Inhibition of human ES5 cell growth in a cell viability assay.

SJSA-1 = assay type: functional, cell-based;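 further: growth inhibition of human SJSA-1 cells, read out through a cell viability measurement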
Description: SANGER: Inhibition of human SJSA-1 cell growth in a cell viability assay.

LB1047-RCC = assay type: functional, cell-based;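 further: inhibition of cell growth, determined with a cell viability assay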
Description: SANGER: Inhibition of human LB1047-RCC cell growth in a cell viability assay.

SW 962 = assay type: functional, cell-based;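 further: growth inhibition of human SW962 cells, read out by a cell viability assay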
Description: SANGER: Inhibition of human SW962 cell growth in a cell viability assay.

SF-539 = assay type: functional, cell-based;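 further: Read-out is a cell viability assay, with IC50 reflecting inhibition of cell growth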
Description: SANGER: Inhibition of human SF539 cell growth in a cell viability assay.

ONS-76 = assay type: functional, cell-based;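 further: growth inhibition of human ONS-76 cells, read out with a cell viability assay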
Description: SANGER: Inhibition of human ONS-76 cell growth in a cell viability assay.

MSTO-211H = assay type: functional, cell-based
Description: SANGER: Inhibition of human MSTO-211H cell growth in a cell viability assay.

RPMI-8866 = assay type: functional, cell-based
Description: SANGER: Inhibition of human RPMI-8866 cell growth in a cell viability assay.

TE-11 = assay type: functional, cell-based;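 further: growth inhibition of human TE-11 cells, read out by a cell viability assay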
Description: SANGER: Inhibition of human TE-11 cell growth in a cell viability assay.

ML-2 = assay type: functional, cell-based;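 further: growth inhibition of ML-2 cells, measured with a cell viability readout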
Description: SANGER: Inhibition of human ML-2 cell growth in a cell viability assay.

GOTO = assay type: functional, cell-based;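 further: growth inhibition of GOTO cells, read out by a cell viability assay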
Description: SANGER: Inhibition of human GOTO cell growth in a cell viability assay.

LS-1034 = assay type: functional, cell-based
Description: SANGER: Inhibition of human LS-1034 cell growth in a cell viability assay.

NCI-H1155 = assay type: functional, cell-based;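 further: cell growth inhibition measured by a viability assay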
Description: SANGER: Inhibition of human NCI-H1155 cell growth in a cell viability assay.

NTERA-2-cl-D1 = assay type: functional, cell-based;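 further: inhibition of cell growth, measured with a cell viability assay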
Description: SANGER: Inhibition of human NTERA-S-cl-D1 cell growth in a cell viability assay.

HCE-4 = assay type: functional, cell-based;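 further: cell viability assay measuring inhibition of growth in the human HCE-4 cell line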
Description: SANGER: Inhibition of human HCE-4 cell growth in a cell viability assay.

TK-10 = assay type: functional, cell-based;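 further: growth inhibition of TK-10 cells, read out in a cell viability assay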
Description: SANGER: Inhibition of human TK10 cell growth in a cell viability assay.

KGN = assay type: functional, cell-based;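 further: growth inhibition of KGN cells, read out with a cell viability assay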
Description: SANGER: Inhibition of human KGN cell growth in a cell viability assay.

HCE-T = assay type: functional, cell-based;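 further: cell viability assay read-out, reporting inhibition of HCE-T cell growth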
Description: SANGER: Inhibition of human HCE-T cell growth in a cell viability assay.

C8166 = assay type: functional, cell-based;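 further: growth inhibition of human C8166 cells measured by a cell viability assay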
Description: SANGER: Inhibition of human C8166 cell growth in a cell viability assay.

OMC-1 = assay type: functional, cell-based;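 further: growth inhibition of the OMC-1 cell line, measured by a cell viability assay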
Description: SANGER: Inhibition of human OMC-1 cell growth in a cell viability assay.

D283 Med = assay type: functional, cell-based
Description: SANGER: Inhibition of human D-283MED cell growth in a cell viability assay.

JVM-3 = assay type: functional, cell-based;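 further: growth inhibition of human JVM-3 cells, read out with a cell viability assay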
Description: SANGER: Inhibition of human JVM-3 cell growth in a cell viability assay.

KURAMOCHI = assay type: functional, cell-based;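 further: growth inhibition of KURAMOCHI cells, read out with a cell viability assay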
Description: SANGER: Inhibition of human KURAMOCHI cell growth in a cell viability assay.

D-502MG = assay type: functional, cell-based
Description: SANGER: Inhibition of human D-502MG cell growth in a cell viability assay.

OS-RC-2 = assay type: functional, cell-based;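 further: growth inhibition of human OS-RC-2 cells, measured by a cell viability assay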
Description: SANGER: Inhibition of human OS-RC-2 cell growth in a cell viability assay.

KLE = assay type: functional, cell-based;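 further: growth inhibition of human KLE cells, read out with a cell viability assay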
Description: SANGER: Inhibition of human KLE cell growth in a cell viability assay.

JVM-2 = assay type: functional, cell-based;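 further: growth inhibition of JVM-2 cells determined by a cell viability assay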
Description: SANGER: Inhibition of human JVM-2 cell growth in a cell viability assay.

DMS-114 = assay type: functional, cell-based
SK-N-DZ = assay type: functional, cell-based;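 further: growth inhibition of the cancer cell line, read out through a viability assay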
Description: SANGER: Inhibition of human SK-N-DZ cell growth in a cell viability assay.

MN-60 = assay type: functional, cell-based;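 further: growth inhibition of the MN-60 cell line, determined with a cell viability assay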
Description: SANGER: Inhibition of human MN-60 cell growth in a cell viability assay.

NCI-H209 = assay type: functional, cell-based;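 further: growth inhibition of human NCI-H209 cells, measured by a cell viability assay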
Description: SANGER: Inhibition of human NCI-H209 cell growth in a cell viability assay.

L-428 = assay type: functional, cell-based
Description: SANGER: Inhibition of human L-428 cell growth in a cell viability assay.

SK-MEL-1 = assay type: functional, cell-based;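 further: growth inhibition of human SK-MEL-1 cells, read out by a cell viability assay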
Description: SANGER: Inhibition of human SK-MEL-1 cell growth in a cell viability assay.

KG-1 = assay type: functional, cell-based;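 further: growth inhibition of KG-1 cells, read out by a cell viability assay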
Description: SANGER: Inhibition of human KG-1 cell growth in a cell viability assay.

HCC1187 = assay type: functional, cell-based;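 further: growth inhibition of HCC1187 cells, read out with a cell viability assay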
Description: SANGER: Inhibition of human HCC1187 cell growth in a cell viability assay.

SK-NEP-1 = assay type: functional, cell-based;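 further: growth inhibition of human SK-NEP-1 cells, read out by a cell viability assay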
Description: SANGER: Inhibition of human SK-NEP-1 cell growth in a cell viability assay.

NCI-H1355 = assay type: functional, cell-based;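 further: growth inhibition of human NCI-H1355 cells, read out by a cell viability assay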
Description: SANGER: Inhibition of human NCI-H1355 cell growth in a cell viability assay.

KNS-42 = assay type: functional, cell-based;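 further: growth inhibition of KNS-42 cells, read out with a cell viability assay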
Description: SANGER: Inhibition of human KNS-42 cell growth in a cell viability assay.

HOP-62 = assay type: functional, cell-based
Description: SANGER: Inhibition of human HOP-62 cell growth in a cell viability assay.

HuTu80 = assay type: functional, cell-based, HUTU-80
Description: SANGER: Inhibition of human HUTU-80 cell growth in a cell viability assay.

NCI-H1648 = assay type: functional, cell-based
Description: SANGER: Inhibition of human NCI-H1648 cell growth in a cell viability assay.

KALS-1 = assay type: functional, cell-based
Description: SANGER: Inhibition of human KALS-1 cell growth in a cell viability assay.

CC(=O)c1c(C)c2cnc(Nc3ccc(N4CCNCC4)cn3)nc2n(C2CCCC2)c1=O [PALBOCICLIB]
pIC50 (CTB-1): 6.39
pIC50 (KS-1): < 5.40
pIC50 (KARPAS-45): 6.42
pIC50 (SNB-75): < 5.40
pIC50 (ES3): 6.14
pIC50 (MS-1): < 5.40
pIC50 (NOMO-1): < 5.40
pIC50 (KP-N-YS): 5.44
pIC50 (A388): < 5.40
pIC50 (SK-N-FI): < 5.40
pIC50 (KINGS-1): < 5.40
pIC50 (CTV-1): 5.60
pIC50 (EOL1): 6.73
pIC50 (SCC-15): < 5.40
pIC50 (GCIY): < 5.40
pIC50 (MHH-PREB-1): 6.20
pIC50 (CAS-1): < 5.40
pIC50 (A3-KAW): 5.96
pIC50 (Calu-6): < 5.40
pIC50 (DU-4475): < 5.40
pIC50 (ES5): 6.12
pIC50 (SJSA-1): 5.62
pIC50 (LB1047-RCC): 6.03
pIC50 (SW 962): 6.09
pIC50 (SF-539): < 5.40
pIC50 (ONS-76): 6.17
pIC50 (MSTO-211H): 5.77
pIC50 (RPMI-8866): 5.80
pIC50 (TE-11): 5.98
pIC50 (ML-2): 5.92
pIC50 (GOTO): < 5.40
pIC50 (LS-1034): < 5.40
pIC50 (NCI-H1155): < 5.40
pIC50 (NTERA-2-cl-D1): < 5.40
pIC50 (HCE-4): < 5.40
pIC50 (TK-10): 5.49
pIC50 (KGN): 5.55
pIC50 (HCE-T): < 5.40
pIC50 (C8166): < 5.40
pIC50 (OMC-1): < 5.40
pIC50 (D283 Med): 5.56
pIC50 (JVM-3): 6.07
pIC50 (KURAMOCHI): < 5.40
pIC50 (D-502MG): < 5.40
pIC50 (OS-RC-2): 6.28
pIC50 (KLE): < 5.40
pIC50 (JVM-2): < 5.40
pIC50 (DMS-114): < 5.40
pIC50 (SK-N-DZ): < 5.40
pIC50 (MN-60): 5.64
pIC50 (NCI-H209): < 5.40
pIC50 (L-428): < 5.40
pIC50 (SK-MEL-1): < 5.40
pIC50 (KG-1): 5.90
pIC50 (HCC1187): < 5.40
pIC50 (SK-NEP-1): 6.66
pIC50 (NCI-H1355): 5.59
pIC50 (KNS-42): < 5.40

CCCS(=O)(=O)Nc1ccc(F)c(C(=O)c2c[nH]c3ncc(Cl)cc23)c1F [PLX-4720]
pIC50 (CTB-1): 5.47
pIC50 (KS-1): < 5.00
pIC50 (KARPAS-45): 5.69
pIC50 (SNB-75): < 5.00
pIC50 (HOP-62): < 5.00
pIC50 (HuTu80): < 5.00
pIC50 (ES3): < 5.00
pIC50 (MS-1): < 5.00
pIC50 (NOMO-1): < 5.00
pIC50 (KP-N-YS): < 5.00
pIC50 (NCI-H1648): < 5.00
pIC50 (A388): < 5.00
pIC50 (SK-N-FI): < 5.00
pIC50 (KINGS-1): < 5.00
pIC50 (CTV-1): < 5.00
pIC50 (EOL1): 6.85
pIC50 (SCC-15): < 5.00
pIC50 (GCIY): < 5.00
pIC50 (MHH-PREB-1): < 5.00
pIC50 (CAS-1): < 5.00
pIC50 (A3-KAW): < 5.00
pIC50 (Calu-6): < 5.00
pIC50 (DU-4475): 7.13
pIC50 (ES5): 5.21
pIC50 (SJSA-1): < 5.00
pIC50 (LB1047-RCC): < 5.00
pIC50 (SW 962): < 5.00
pIC50 (SF-539): < 5.00
pIC50 (KALS-1): < 5.00
pIC50 (ONS-76): < 5.00
pIC50 (MSTO-211H): < 5.00
pIC50 (RPMI-8866): < 5.00
pIC50 (TE-11): < 5.00
pIC50 (ML-2): < 5.00
pIC50 (GOTO): < 5.00
pIC50 (LS-1034): < 5.00
pIC50 (NCI-H1155): < 5.00
pIC50 (NTERA-2-cl-D1): < 5.00
pIC50 (HCE-4): < 5.00
pIC50 (TK-10): < 5.00
pIC50 (KGN): < 5.00
pIC50 (HCE-T): < 5.00
pIC50 (C8166): < 5.00
pIC50 (OMC-1): < 5.00
pIC50 (D283 Med): < 5.00
pIC50 (JVM-3): 5.02
pIC50 (KURAMOCHI): < 5.00
pIC50 (D-502MG): < 5.00
pIC50 (OS-RC-2): < 5.00
pIC50 (KLE): < 5.00
pIC50 (JVM-2): < 5.00
pIC50 (DMS-114): < 5.00
pIC50 (SK-N-DZ): < 5.00
pIC50 (MN-60): < 5.00
pIC50 (NCI-H209): 5.79
pIC50 (L-428): < 5.00
pIC50 (SK-MEL-1): < 5.00
pIC50 (KG-1): 5.32
pIC50 (HCC1187): < 5.00
pIC50 (SK-NEP-1): < 5.00
pIC50 (NCI-H1355): < 5.00
pIC50 (KNS-42): < 5.00
